Assays:
[1] = test system: arterial vulnerable plaques; assay: In vivo CT tracing of arterial vulnerable plaques, iodixanol; parameters: species or system mice; conditions: iodixanol 0.66 mg/kg, tail vein, CT 72 hours after administration; FIG. 16
Procedure: (1) A commercially available iodixanol bulk drug was used, and the cerasome delivery system HA-CL1@I loaded with a CT tracer, the cerasome delivery system HA-CL1@I+S loaded with a tracer and a CD44 activator, and the non-targeting cerasome delivery system CL1@I loaded with a tracer (as a comparative example) were prepared by the method described in the above Example 2.
(2) A mouse model of atherosclerotic vulnerable plaque was constructed according to the method described in Example 6 above.
(3) The model mice were fed with a high-fat diet (same as in Example 6) for 16 weeks. 30 model mice were randomly divided into the blank group (6 mice), the iodixanol group (6 mice, given the commercially available iodixanol bulk drug, and the dosage of iodixanol was 0.66 mg/kg body weight), the CL1@I group (6 mice, given CL1@I, and the dosage of iodixanol was 0.66 mg/kg body weight), the HA-CL1@I group (6 mice, given HA-CL1@I, and the dosage of iodixanol was 0.66 mg/kg body weight), and HA-CL1@I+S group (6 mice, given HA-CL1@I+S, the dosage of iodixanol was 0.66 mg/kg body weight, and the dosage of CD44 activator-LPS was about 0.023 mg/kg body weight). […]

[2] = test system: arterial vulnerable plaques; assay: In vivo therapeutic effect on arterial vulnerable plaques (carotid MRI, percentage of plaque progression); parameters: species or system ApoE−/− mice; conditions: 5 mg rosuvastatin per kg, once every other day, 5 treatments; FIG. 14
[3] = oral, clinical practice; cited from earlier work
[4] = target: T1, CD44 on the surface of endothelial cells at arterial vulnerable plaques (Mus musculus, UniProt P15379); assay: Binding force integration of FL-ligand/antibody on endothelial cells (flow cytometry MFI); parameters: species or system mice; conditions: aminofluorescein-labeled ligand/antibody 10 mg/ml, 30 minutes, 37° C.
T1 construct: from tissue; host or cells: endothelial cells from arterial vulnerable plaques of atherosclerosis model mice
T1 sequence (P15379 23-778): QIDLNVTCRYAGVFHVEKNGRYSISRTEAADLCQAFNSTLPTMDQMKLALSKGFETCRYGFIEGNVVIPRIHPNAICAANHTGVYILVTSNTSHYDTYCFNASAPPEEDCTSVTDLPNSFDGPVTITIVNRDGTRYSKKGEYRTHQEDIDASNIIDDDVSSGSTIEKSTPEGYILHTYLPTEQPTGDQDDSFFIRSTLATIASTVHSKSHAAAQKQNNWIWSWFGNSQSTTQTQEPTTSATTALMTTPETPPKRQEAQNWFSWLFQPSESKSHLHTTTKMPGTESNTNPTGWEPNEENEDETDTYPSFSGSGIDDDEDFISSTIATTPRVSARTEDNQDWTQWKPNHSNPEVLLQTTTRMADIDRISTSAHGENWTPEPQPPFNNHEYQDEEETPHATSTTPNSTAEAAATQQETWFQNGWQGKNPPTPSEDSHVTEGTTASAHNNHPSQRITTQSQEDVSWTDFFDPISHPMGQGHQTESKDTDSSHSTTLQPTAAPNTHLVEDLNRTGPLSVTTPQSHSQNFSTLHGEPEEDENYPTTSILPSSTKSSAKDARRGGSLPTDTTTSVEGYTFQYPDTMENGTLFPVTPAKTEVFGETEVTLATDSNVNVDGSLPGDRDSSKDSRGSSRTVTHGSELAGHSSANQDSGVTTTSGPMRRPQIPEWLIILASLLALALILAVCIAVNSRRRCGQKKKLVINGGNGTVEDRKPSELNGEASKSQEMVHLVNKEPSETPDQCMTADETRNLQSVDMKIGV
Procedure: Endothelial cells at normal arterial vessel walls and endothelial cells at arterial vulnerable plaques of model mice were taken, and hyaluronic acid labeled with aminofluorescein at a concentration of 10 mg/ml (represented by “FL-HA”) was added, and the sample was cultured in Dulberic modified Eagle's medium (DMEM) (containing calf serum with a volume fraction of 10%, 100 U/ml penicillin, 100 U/ml streptomycin) at 37° C., in 5% CO2 incubator. After 30 minutes, the mean fluorescence intensity (MFI) was determined by flow cytometry (CytoFLEX, Beckman Coulter, U.S.A.), and the binding force integration of FL-HA on the surface of both cells was calculated (the binding force of endothelial cells of normal arterial vessel walls is set to 1).
Endothelial cells at normal arterial vessel walls and endothelial cells at arterial vulnerable plaques of model mice were taken, and the ligand/antibody labeled with aminofluorescein at a concentration of 10 mg/ml was added, the sample was cultured in Dulberic modified Eagle's medium (DMEM) (containing calf serum with a volume fraction of 10%, 100 U/ml penicillin, 100 U/ml streptomycin) at 37° C., in 5% CO2 incubator. After 30 minutes, the mean fluorescence intensity (MFI) was determined by flow cytometry (CytoFLEX, Beckman Coulter, U.S.A.), and the binding force integration of FL-ligand/antibody on the surface of both cells was calculated (the binding force of CD44 of endothelial cells of normal arterial vessel walls to ligand/antibody is set to 1).

[5] = target: T2, CD44 on the surface of macrophages inside arterial vulnerable plaques (Mus musculus, UniProt P15379); assay: Binding force integration of FL-ligand/antibody on macrophages (flow cytometry MFI); parameters: species or system mice; conditions: aminofluorescein-labeled ligand/antibody 10 mg/ml, 30 minutes, 37° C.
T2 construct: from tissue; host or cells: macrophages from inside arterial vulnerable plaques of atherosclerosis model mice
T2 sequence (P15379 23-778): T1 sequence (P15379 23-778)
Procedure: Intraperitoneal macrophages and macrophages inside arterial vulnerable plaques of model mice were taken, and hyaluronic acid labeled with aminofluorescein at a concentration of 10 mg/ml (represented by “FL-HA”) was added, the sample was cultured in DMEM (containing calf serum with a volume fraction of 10%, 100 U/ml penicillin, 100 U/ml streptomycin) at 37° C., in 5% CO2 incubator.
Intraperitoneal macrophages and macrophages inside arterial vulnerable plaques of model mice were taken, and the ligand/antibody labeled with aminofluorescein at a concentration of 10 mg/ml was added, the sample was cultured in DMEM (containing calf serum with a volume fraction of 10%, 100 U/ml penicillin, 100 U/ml streptomycin) at 37° C., in 5% CO2 incubator.

| Compound | tracing effect on arterial vulnerable plaques (CT) [1] | therapeutic effect on arterial vulnerable plaques (percentage of plaque progression) [2] | bioavailability when administered orally [3] | binding force integration, endothelial cells at vulnerable plaques versus endothelial cells of normal arterial vessel walls (set to 1) [4] | binding force integration, macrophages inside vulnerable plaques versus macrophages outside the plaque (set to 1) [5] |
| --- | --- | --- | --- | --- | --- |
| CC(=O)N(CC(O)CN(C(C)=O)c1c(I)c(C(=O)NCC(O)CO)c(I)c(C(=O)NCC(O)CO)c1I)c1c(I)c(C(=O)NCC(O)CO)c(I)c(C(=O)NCC(O)CO)c1I (stereo not shown) [iodixanol] | does not show any tracing effect | – | – | – | – |
| CC(C)c1nc(N(C)S(C)(=O)=O)nc(-c2ccc(F)cc2)c1/C=C/[C@@H](O)C[C@@H](O)CC(=O)O [rosuvastatin] | – | shows a certain therapeutic effect, but it could not prevent the continued growth of vulnerable plaques | about 20% | – | – |
| collagen | – | – | – | 21 times | 38 times |
| fibronectin | – | – | – | 18 times | 35 times |
| hyaluronic acid [HA, reference compound] | – | – | – | approximately 24 times | approximately 40 times |
| laminin | – | – | – | 16 times | 37 times |
| osteopontin: natural ligand for CD44 | – | – | – | 17 times | 33 times |
